# Data published in US6403531B1, “Herbicidal synergistic composition and method of weed control” (Syngenta Crop Protection, inc., priority 1997, dated 2002).
# How the values were obtained:
# Format in all cases: in vivo
# Solanum = experiment: Post-emergence herbicidal action
# Description: (§1) A synergistic effect exists whenever the action of the active ingredient combination I and II, III, IV, V, VI, VII, VIII, IX or X is greater than the sum of the actions of the active ingredients applied individually. The herbicidal action to be expected, We, for a given combination of two herbicides can be calculated as follows (see COLBY, S. R. “Calculating synergistic and antagonistic response of herbicide combinations”. Weeds 15, pages 20-22; 1967):
# (§2) We=expected herbicidal action (% herbicidal action in comparison with untreated control) after treatment with the compounds of formula I and II, III, IV, V, VI, VII, VIII, IX or X at a rate of application of p+q kg of active ingredient per hectare.
# (§3) The test plants are raised in plastics pots under greenhouse conditions as far as the 2- to 3-leaf stage. A standard soil is used as the cultivation substrate. At the 2- to 3-leaf stage, the herbicides are applied individually and as mixtures to the test plants. The test compounds are applied in the form of an aqueous suspension in 500 l of water/ha. The rates of application depend on the optimum concentrations determined under field conditions and greenhouse conditions. Evaluation of the tests is made after 11 and 22 days (DAA=day after application) in % action. 100% denotes that the plants have died, 0% denotes no phytotoxic action.
# Xanthium = experiment: Pre-emergence herbicidal action
# Description: as §1, §2
# (§4) Monocotyledonous and dicotyledonous weeds and cultivated plants are sown in standard soil in plastics pots. Immediately after sowing, the test compounds are applied as an aqueous suspension (500 l of water/ha). The rates of application depend on the optimum concentrations determined under field conditions and greenhouse conditions. Evaluation of the tests is made after 15 and 27 days (DAA=day after application) in % action. 100% denotes that the plants have died, 0% denotes no phytotoxic action.
# Abutilon [1] = experiment: Pre-emergence herbicidal action
# Description: as §1, §2, §4
# Sesbania [2] = experiment: Pre-emergence herbicidal action
# Description: as §1, §2, §4
# cotton = experiment: Pre-emergence herbicidal action (cultivated plant)
# Description: as §1, §2, §4
# Cyperus = experiment: Herbicidal action
# Solanum nigrum = experiment: Herbicidal action; details: post-emergence
# Sorghum hal. = experiment: Herbicidal action; details: titled pre-emergence (under Example B2)
# Abutilon [3] = experiment: Post-emergence herbicidal action
# Description: as §1, §2, §3
# Cassia sp. = experiment: Post-emergence herbicidal action
# Description: as §1, §2, §3
# Digitaria = experiment: Post-emergence herbicidal action
# Description: as §1, §2, §3
# Sesbania [4] = experiment: Post-emergence herbicidal action
# Description: as §1, §2, §3
# Sorghum = experiment: Post-emergence herbicidal action
# Description: as §1, §2, §3
smiles,measurement,setting,value
"N#Cc1cc(Br)c(O)c(Br)c1 [bromoxynil, bromoxinil]",herbicidal action on Solanum,"Solanum; DAA 11, 500 g/ha",35%
same,herbicidal action on Solanum,"Solanum; DAA 11, 1000 g/ha",40%
CC1(C)CON(Cc2ccccc2Cl)C1=O [clomazone],herbicidal action on Xanthium,"Xanthium; DAA 15, 125 g/ha",10%
same,herbicidal action on Xanthium,"Xanthium; DAA 15, 250 g/ha",25%
same,herbicidal action on Xanthium,"Xanthium; DAA 15, 500 g/ha",60%
COc1cc(OC)nc(NC(=O)NOS(=O)c2ncccc2OCC(F)(F)F)n1.[Na+] (centres unmarked) [compound of formula I],herbicidal action on Abutilon,"Abutilon [1]; DAA 27, 3.75 g/ha",50%
same,herbicidal action on Sesbania,"Sesbania [2]; DAA 15, 3.75 g/ha",35%
same,herbicidal action on Sesbania,"Sesbania [2]; DAA 27, 3.75 g/ha",25%
same,herbicidal action on Xanthium,"Xanthium; DAA 15, 3.75 g/ha",85%
same,herbicidal action on Xanthium,"Xanthium; DAA 15, 7.5 g/ha",90%
same,herbicidal action on Xanthium,"Xanthium; DAA 27, 3.75 g/ha",96%
same,herbicidal action on cotton (damage),"cotton; DAA 27, 3.75 g/ha",10%
same,herbicidal action on Cyperus,"Cyperus; post-emergence, DAA 22, 1.88 g/ha",70%
same,herbicidal action on Cyperus,"Cyperus; titled pre-emergence (under Example B2), DAA 11, 3.75 g/ha",50%
same,herbicidal action on Solanum nigrum,"Solanum nigrum; DAA 22, 1.88 g/ha",0%
same,herbicidal action on Solanum nigrum,"Solanum nigrum; DAA 22, 3.75 g/ha",0%
same,herbicidal action on Solanum nigrum,"Solanum nigrum; DAA 22, 7.5 g/ha",15%
same,herbicidal action on Sorghum hal.,"Sorghum hal.; DAA 22, 1.88 g/ha",75%
same,herbicidal action on Abutilon,"Abutilon [3]; DAA 22, 1.88 g/ha",55%
same,herbicidal action on Cassia sp.,"Cassia sp.; DAA 11, 1.88 g/ha",70%
same,herbicidal action on Digitaria,"Digitaria; DAA 22, 1.88 g/ha",15%
same,herbicidal action on Sesbania,"Sesbania [4]; DAA 11, 1.88 g/ha",70%
same,herbicidal action on Solanum,"Solanum; DAA 11, 7.5 g/ha",20%
same,herbicidal action on Sorghum,"Sorghum; DAA 22, 1.88 g/ha",75%
CN(C)C(=O)Nc1cccc(C(F)(F)F)c1 [fluometuron],herbicidal action on Cyperus,"Cyperus; titled pre-emergence (under Example B2), DAA 11, 250 g/ha",0%
same,herbicidal action on Cyperus,"Cyperus; titled pre-emergence (under Example B2), DAA 11, 500 g/ha",25%
same,herbicidal action on Cyperus,"Cyperus; titled pre-emergence (under Example B2), DAA 11, 1000 g/ha",20%
CP(=O)(O)CCC(N)C(=O)O (centres unmarked) [glufosinate],herbicidal action on Cyperus,"Cyperus; post-emergence, DAA 22, 250 g/ha",35%
same,herbicidal action on Abutilon,"Abutilon [3]; DAA 22, 250 g/ha",55%
same,herbicidal action on Digitaria,"Digitaria; DAA 22, 250 g/ha",75%
same,herbicidal action on Sorghum,"Sorghum; DAA 22, 250 g/ha",85%
CCc1cccc(C)c1N(C(=O)CCl)C(C)COC (centres unmarked) [metolachlor],herbicidal action on Sorghum hal.,"Sorghum hal.; DAA 22, 375 g/ha",0%
same,herbicidal action on Sorghum hal.,"Sorghum hal.; DAA 22, 750 g/ha",0%
same,herbicidal action on Sorghum hal.,"Sorghum hal.; DAA 22, 1500 g/ha",0%
CNc1cnn(-c2cccc(C(F)(F)F)c2)c(=O)c1Cl [norflurazon],herbicidal action on Abutilon,"Abutilon [1]; DAA 27, 250 g/ha",60%
same,herbicidal action on Abutilon,"Abutilon [1]; DAA 27, 500 g/ha",60%
same,herbicidal action on Sesbania,"Sesbania [2]; DAA 27, 250 g/ha",10%
same,herbicidal action on Sesbania,"Sesbania [2]; DAA 27, 500 g/ha",30%
same,herbicidal action on Xanthium,"Xanthium; DAA 27, 250 g/ha",10%
same,herbicidal action on Xanthium,"Xanthium; DAA 27, 500 g/ha",35%
same,herbicidal action on cotton (damage),"cotton; DAA 27, 250 g/ha",0%
same,herbicidal action on cotton (damage),"cotton; DAA 27, 500 g/ha",0%
CCC(CC)Nc1c([N+](=O)[O-])cc(C)c(C)c1[N+](=O)[O-] [pendimethalin],herbicidal action on Xanthium,"Xanthium; DAA 15, 250 g/ha",0%
same,herbicidal action on Xanthium,"Xanthium; DAA 15, 500 g/ha",0%
same,herbicidal action on Xanthium,"Xanthium; DAA 15, 1000 g/ha",0%
CSc1nc(NC(C)C)nc(NC(C)C)n1 [prometryn],herbicidal action on Sesbania,"Sesbania [2]; DAA 15, 250 g/ha",10%
same,herbicidal action on Xanthium,"Xanthium; DAA 15, 250 g/ha",0%
same,herbicidal action on Solanum nigrum,"Solanum nigrum; DAA 22, 250 g/ha",0%
same,herbicidal action on Solanum nigrum,"Solanum nigrum; DAA 22, 500 g/ha",0%
same,herbicidal action on Solanum nigrum,"Solanum nigrum; DAA 22, 1000 g/ha",20%
"COc1cc(OC)nc(Sc2cccc(Cl)c2C(=O)[O-])n1.[Na+] [pyrithiobac, pyrithiobac-sodium]",herbicidal action on Cassia sp.,"Cassia sp.; DAA 11, 25 g/ha",50%
same,herbicidal action on Cassia sp.,"Cassia sp.; DAA 11, 50 g/ha",80%
same,herbicidal action on Cassia sp.,"Cassia sp.; DAA 11, 100 g/ha",70%
CCc1cccc(C)c1N(C(=O)CCl)[C@@H](C)COC [α-metolachlor],herbicidal action on Cassia sp.,"Cassia sp.; DAA 11, 250 g/ha",0%
same,herbicidal action on Cassia sp.,"Cassia sp.; DAA 11, 500 g/ha",0%
same,herbicidal action on Cassia sp.,"Cassia sp.; DAA 11, 1000 g/ha",0%
same,herbicidal action on Sesbania,"Sesbania [4]; DAA 11, 250 g/ha",0%
same,herbicidal action on Sesbania,"Sesbania [4]; DAA 11, 500 g/ha",0%
same,herbicidal action on Sesbania,"Sesbania [4]; DAA 11, 1000 g/ha",0%
